Results: BindingDB's records for doi:10.1016/j.bmc.2021.116215 (Research Triangle Institute, 2021)
pIC50: −log10 of the molar value.

Biological target: Cannabinoid receptor 1 (Homo sapiens, UniProt P21554)
Assay: Allosteric antagonist activity at human CB1 receptor expressed in CHO-RD-HGA16 cells overexpressing Galpha16 assessed as inhibition of CP55940-stimulated calcium mobilization preincubated for 15 mins followed by agonist addition and measured every 1 sec for 90 secs by Calcium-3 dye based FLIPR assay

Chain of Cannabinoid receptor 1 (P21554 whole entry): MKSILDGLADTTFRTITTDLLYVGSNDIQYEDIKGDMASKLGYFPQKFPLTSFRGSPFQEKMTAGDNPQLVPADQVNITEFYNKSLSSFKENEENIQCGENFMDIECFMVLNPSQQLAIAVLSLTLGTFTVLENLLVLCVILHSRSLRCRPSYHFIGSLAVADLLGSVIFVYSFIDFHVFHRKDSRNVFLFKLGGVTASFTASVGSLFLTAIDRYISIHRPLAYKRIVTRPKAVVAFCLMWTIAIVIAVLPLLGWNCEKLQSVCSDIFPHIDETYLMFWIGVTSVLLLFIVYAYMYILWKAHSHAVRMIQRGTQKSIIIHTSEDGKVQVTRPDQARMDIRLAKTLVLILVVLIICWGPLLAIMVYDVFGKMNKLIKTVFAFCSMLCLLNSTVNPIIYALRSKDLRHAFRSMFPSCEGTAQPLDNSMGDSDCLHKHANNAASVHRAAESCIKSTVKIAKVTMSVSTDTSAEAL

O=C(NC[C@H]1C[C@@H]1c1ccccc1)Nc1ccc(Cl)cc1
pIC50: 5.60
